34 molecules from ChEMBL document CHEMBL3046474, “Development of robust QSAR model using rapid overlay of crystal structures (ROCS) based alignment: a test case of Tubulin inhibitors” (Med Chem Res, 2013) can be followed below.

The target of this assay is Tubulin. Nature of the assay: Inhibition of tubulin polymerization in Homo sapiens (human) solid tumor cells.
With `COc1ccc(Cc2cc(OC)c(OC)c(OC)c2)cc1O`, the pIC50 was 5.11.
`COc1ccc(CCCCc2cc(OC)c(OC)c(OC)c2)cc1O` returned a pIC50 of 4.26.
The result for `COc1ccc(/C=C(/C=O)c2cc(OC)c(OC)c(OC)c2)cc1` reads 5.4.
Under `COc1ccc(/C=C(/C#N)c2cc(OC)c(OC)c(OC)c2)cc1O` stands 5.3; under `COc1cc(/C=C\c2ccc(C)c(N)c2)cc(OC)c1OC`, 5.4; under `COc1ccc(/C=C(/C#N)c2cc(OC)c(OC)c(OC)c2)cc1N`, 5.
The result for `COc1ccc(/C=C(/C#N)c2cc(OC)c(OC)c(OC)c2)cc1` reads 5.22.
Consider `COc1ccc(CCc2cc(OC)c(OC)c(OC)c2)cc1O`, for which the pIC50 is given as 5.48.
The result for `COc1ccc(/C=C\c2cc(OC)c(OC)c(OC)c2)cn1` reads 5.7; that for `COc1ccc(OCc2cc(OC)c(OC)c(OC)c2)cc1O`, 4.65.
Under `COc1ccc(\C=C/C=C/C=C/c2cc(OC)c(OC)c(OC)c2)cc1O` stands 5; under `COc1cc(/C=C\c2ccc(C)c(N=[N+]=[N-])c2)cc(OC)c1OC`, 5.92; under `COc1ccc(C(O)C(O)c2cc(OC)c(OC)c(OC)c2)cc1O` (centres undefined), 4.66.
For `COc1ccc(NCc2cc(OC)c(OC)c(OC)c2)cc1O.Cl`, the pIC50 was 5.05.
Under `COc1cc(CNc2ccc(C)c(O)c2)cc(OC)c1OC.Cl` stands 5.46.
Under `COc1cc2ccc3cc(O)c(C)cc3c2c(OC)c1OC` stands 4; under `COc1cc(/C=C\c2cccc(SC)c2)cc(OC)c1OC`, 5.21; under `COc1cc(/C=C\c2ccc(C)cc2)cc(OC)c1OC`, 5.7.
Under `COc1cc(/C=C\c2ccc(N(C)C)cc2)cc(OC)c1OC` stands 5.47; under `COc1cccc(/C=C\c2cc(OC)c(OC)c(OC)c2)c1`, 5.06.
`COc1ccc(/C(C#N)=C\c2cc(OC)c(OC)c(OC)c2)cc1N`: the pIC50 was 5.3.
The result for `COc1ccc(/C=C(/C(N)=O)c2cc(OC)c(OC)c(OC)c2)cc1N` reads 5.52; that for `COc1cnc(/C=C\c2cc(OC)c(OC)c(OC)c2)cn1`, 5.05.
The result for `COc1ncc(/C=C\c2cc(OC)c(OC)c(OC)c2)cn1` reads 5.52.
Under `COc1ccc(/C=C\c2cc(OC)c(OC)c(OC)c2)nc1` stands 5.52; under `COc1ccc(COc2cc(OC)c(OC)c(OC)c2)cc1O`, 5.46.
In turn, `COc1ccc(Oc2cc(OC)c(OC)c(OC)c2)cc1O` had a pIC50 of 4.79.
For `COc1cc(/C=C\c2ccc(Cl)c(N)c2)cc(OC)c1OC`, the pIC50 stood at 5.52.
Under `COc1cc(/C=C\c2ccn(C)c(=O)c2)cc(OC)c1OC` stands 5.7; under `CCCOc1ccc(/C=C\c2cc(OC)c(OC)c(OC)c2)cc1`, 5.22; under `COc1cc(/C=C\c2ccc(Br)cc2)cc(OC)c1OC`, 5.51.
Under `COc1ccc(NCc2cc(OC)c(OC)c(OC)c2)cc1` stands 4.64; under `COc1cc(/C=C\c2ccccc2)cc(OC)c1OC`, 4.44; under `COc1cc(/C=C\c2ccc(OC(C)=O)cc2)cc(OC)c1OC`, 4.54.

The term pIC50 denotes −log10 of the IC50, conventionally taken in molar units. The low end stands for a high IC50, the high end for a low IC50.
